Test systems include CCRF-CEM leukemia; HCC-2998 colon; HT29 colon; IGROV1 ovarian; MOLT-4 leukemia; NCI-H23 lung; SNB-75 CNS; UO-31 renal.
Common to all, as to assay: growth of human tumour cells (NCI), 48 h

“And” between values parts separate entries of the source, which are not always exact repeats. Equal values may be shown once.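 1) Cells in 96-well plates. 2) Compound, 48 h, 5 concentrations. 3) Linear interpolation between surrounding doses. 4) Unreached endpoint = highest concentration. GI50 is the concentration that inhibits growth by half. TGI is the concentration that stops growth completely.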

For the compound `CC(C)N(C(C)C)[PH+]1O[PH+](N(C(C)C)C(C)C)O[PH+](N(C(C)C)C(C)C)O[PH+](N(C(C)C)C(C)C)O[PH+](N(C(C)C)C(C)C)O1.[C-]#[O+].[C-]#[O+].[C-]#[O+].[C-]#[O+].[C-]#[O+].[C-]#[O+].[C-]#[O+].[Cr].[Cr]` (centres undefined), the GI50 in the experiment with CCRF-CEM leukemia, with HCC-2998 colon, in the experiment with HT29 colon, with IGROV1 ovarian, with MOLT-4 leukemia and in the experiment on NCI-H23 lung was greater than 100 µM each time. In addition, the GI50 was 75.4 µM in the experiment on SNB-75 CNS and greater than 100 µM in the experiment with UO-31 renal. For the same compound, the TGI in the experiment on CCRF-CEM leukemia, in the experiment on HCC-2998 colon, in the experiment with HT29 colon, with IGROV1 ovarian, with MOLT-4 leukemia and in the experiment with NCI-H23 lung was greater than 100 µM throughout. The TGI in the experiment on SNB-75 CNS and in the experiment on UO-31 renal was greater than 100 µM each time.
As to `Cc1cc(O)c2c(c1)C(O)(c1ccc3c(c1O)C(=O)c1c(O)cc(C)cc1C3(O)C1OC(CO)C(O)C(O)C1O)c1cccc(O)c1C2=O` (centres undefined), the TGI came to 25.8 µM with CCRF-CEM leukemia; 29.5 µM in the experiment with HCC-2998 colon; 38.4 µM with HT29 colon; 28.1 µM in the experiment on IGROV1 ovarian; 32.6 µM with MOLT-4 leukemia; 31.2 µM in the experiment on NCI-H23 lung. Also, the values for the TGI in the experiment on SNB-75 CNS and in the experiment with UO-31 renal were 27.5 µM and 32 µM, respectively.
As to `Cc1nc2c(n1CC(C)(C)C)C(=O)c1ccccc1C2=O`, the TGI in the experiment on CCRF-CEM leukemia, in the experiment on HCC-2998 colon, in the experiment with HT29 colon, in the experiment with IGROV1 ovarian, in the experiment on MOLT-4 leukemia and in the experiment with NCI-H23 lung was greater than 100 µM throughout. Moreover, the TGI in the experiment on SNB-75 CNS and in the experiment with UO-31 renal was greater than 100 µM each time.
Take `O=C(C(=O)c1ccc(Cc2ccc(C(=O)C(=O)c3ccccc3)cc2)cc1)c1ccccc1`: the TGI in the experiment on CCRF-CEM leukemia, in the experiment with HCC-2998 colon, with HT29 colon, in the experiment with IGROV1 ovarian, in the experiment on NCI-H23 lung and in the experiment with SNB-75 CNS was greater than 100 µM each time. Further, in the experiment with UO-31 renal, the TGI was greater than 100 µM.
On to `O=C1[C@@H](c2ccc(Cl)cc2)[C@H]2CC=C[C@H]2N1O`, for which the TGI in the experiment on CCRF-CEM leukemia, in the experiment on HCC-2998 colon, in the experiment with HT29 colon, in the experiment with IGROV1 ovarian, with MOLT-4 leukemia and in the experiment on NCI-H23 lung was greater than 100 µM each time. Besides, the TGI in the experiment with SNB-75 CNS and with UO-31 renal was greater than 100 µM throughout.
In the case of `COC(=O)c1nc(NN)[nH]c(=O)c1CCCCCc1c(C(=O)OC)[nH]c(NN)cc1=O`, the TGI in the experiment on CCRF-CEM leukemia, in the experiment on HCC-2998 colon, in the experiment with HT29 colon, in the experiment with IGROV1 ovarian, in the experiment on MOLT-4 leukemia and in the experiment with NCI-H23 lung was greater than 100 µM each time. The TGI in the experiment on SNB-75 CNS and with UO-31 renal was greater than 100 µM each time.
As for `O=[N+]([O-])c1ccc(N=Nc2c(O)[nH]c3ccc([N+](=O)[O-])cc23)cc1`, the TGI in the experiment on CCRF-CEM leukemia was greater than 100 µM; in the experiment on HT29 colon it was 51.8 µM; in the experiment with IGROV1 ovarian, greater than 100 µM; in the experiment with MOLT-4 leukemia, greater than 100 µM; in the experiment on NCI-H23 lung, 44.9 µM; with SNB-75 CNS, greater than 100 µM. The compound also gave a TGI with UO-31 renal of 59.8 µM.
For `COC(=O)C1=CCON(c2ccccc2)C1c1ccccc1` (centres undefined), the TGI in the experiment with CCRF-CEM leukemia, in the experiment with HCC-2998 colon, with HT29 colon, with IGROV1 ovarian, in the experiment with MOLT-4 leukemia and in the experiment on NCI-H23 lung was greater than 100 µM each time. In addition, the TGI with SNB-75 CNS and with UO-31 renal was greater than 100 µM throughout.
`Cc1c(C)c2cc3c(=O)ccoc3c(C)c2oc1=O`: the TGI in the experiment with CCRF-CEM leukemia was greater than 100 µM; in the experiment on HCC-2998 colon it was greater than 100 µM; with IGROV1 ovarian, greater than 100 µM; in the experiment on MOLT-4 leukemia, 92.7 µM; with NCI-H23 lung, greater than 100 µM; in the experiment on SNB-75 CNS it was 85.2 µM. This compound also had a TGI in the experiment with UO-31 renal greater than 100 µM.
Turning to `CC(=O)N(CCN)CCN`, the TGI with CCRF-CEM leukemia is greater than 10 µM; in the experiment with HCC-2998 colon it was greater than 10 µM; in the experiment on MOLT-4 leukemia, greater than 10 µM; with NCI-H23 lung, greater than 10 µM; in the experiment with SNB-75 CNS, greater than 100 µM; in the experiment with UO-31 renal, greater than 10 µM.
As for `Clc1ccc([O][In]([O]c2ccc(Cl)cn2)[O]c2ccc(Cl)cn2)nc1`, the GI50 with CCRF-CEM leukemia, in the experiment with HCC-2998 colon, with HT29 colon, in the experiment on IGROV1 ovarian, in the experiment on NCI-H23 lung and with SNB-75 CNS was greater than 100 µM in each case. In the experiment on UO-31 renal, the GI50 is greater than 100 µM. Also, the TGI in the experiment with CCRF-CEM leukemia, with HCC-2998 colon, in the experiment with HT29 colon, in the experiment with IGROV1 ovarian, with NCI-H23 lung and in the experiment on SNB-75 CNS was greater than 100 µM each time. The compound also registered a TGI with UO-31 renal greater than 100 µM.
For `O=C(CCc1nc(=S)[nH][nH]1)NC12CC3CC(CC(C3)C1)C2`, the TGI with CCRF-CEM leukemia, in the experiment with HCC-2998 colon, in the experiment on HT29 colon, in the experiment on IGROV1 ovarian, in the experiment with NCI-H23 lung and with SNB-75 CNS was greater than 100 µM each time. In the experiment on UO-31 renal, this compound displayed a TGI greater than 100 µM.
As for `CCc1ccccc1NC(=O)C(=O)C(C(=O)c1ccc(OC)cc1)c1ccc(OC)cc1` (centres undefined), the TGI in the experiment with CCRF-CEM leukemia, with HCC-2998 colon, in the experiment with HT29 colon, in the experiment on IGROV1 ovarian, with MOLT-4 leukemia and with NCI-H23 lung was greater than 100 µM in each case. This compound also gave a TGI in the experiment on UO-31 renal greater than 100 µM.
Take `COc1cc(C2c3cc4c(cc3[C@@H](Nc3ccc(N(C)C)cc3)[C@H]3COC(=O)C23)OCO4)cc(OC)c1O` (some centres undefined): the GI50 in the experiment with HCC-2998 colon is 2.36 µM; with HT29 colon, 2.46 µM; in the experiment with IGROV1 ovarian it was 4.57 µM; with MOLT-4 leukemia, less than 0.0075 µM; with NCI-H23 lung it was 0.388 µM; in the experiment with SNB-75 CNS, 0.881 µM. In the experiment with UO-31 renal, the GI50 is 1.47 µM. In addition, the TGI was 3.89 µM and 8.71 µM in the experiment with HCC-2998 colon; 4.64 µM and 11.3 µM in the experiment with HT29 colon; 14.7 µM and 19.9 µM with IGROV1 ovarian; 0.717 µM and 3.18 µM in the experiment on NCI-H23 lung; 9.26 µM and 10.9 µM with SNB-75 CNS; 3.27 µM and 6.69 µM in the experiment with UO-31 renal.

Source of the values: PubChem BioAssay (NCI).
